Test results taken from patent publication US5430027A, “2-chloro-N^6 -substituted adenosines, their pharmaceutical compositions, and activity in treating ischemias” (Novo Nordisk A/S, priority 1992, dated 1995).
pKi: −log10 of the molar value.

Experiments:
[1] = molecular target: T1, A2 receptor (Rattus norvegicus, UniProt P30543); assay: In vitro binding to adenosine A2 receptor, [3H]-CGS 21680 radioligand; settings: radioligand [3H]-CGS 21680; read-out: A2 receptor binding (Ki50)
T1 construct: from tissue
Protocol: (§1) Evaluation of in vitro binding to adenosine A1 and A2 receptors
(§2) The affinity of the novel compounds described in this invention for the adenosine A1 receptor was determined essentially as described in the literature using [^3 H]-R-PIA as a radioligand (Naunyn-Schmiedeberg's Archives of Pharmacology, 1980, 313, 179-187). Affinity for the A2 receptor was measured using the radioligand [^3 H]-CGS 21680 (European Journal of Pharmacology, 1989, 168, 243-246), and the values for representative compounds is given in the table below.

[2] = molecular target: T2, adenosine A1 receptor (Rattus norvegicus, UniProt P25099); assay: In vitro binding to adenosine A1 receptor, [3H]-R-PIA radioligand; settings: for Ratio A2/A1: A2 binding Ki50 divided by A1 binding Ki50 (selectivity); for pKi: radioligand [3H]-R-PIA, read-out: A1 receptor binding (Ki50)
T2 construct: from tissue
T2 sequence (P25099 1-326): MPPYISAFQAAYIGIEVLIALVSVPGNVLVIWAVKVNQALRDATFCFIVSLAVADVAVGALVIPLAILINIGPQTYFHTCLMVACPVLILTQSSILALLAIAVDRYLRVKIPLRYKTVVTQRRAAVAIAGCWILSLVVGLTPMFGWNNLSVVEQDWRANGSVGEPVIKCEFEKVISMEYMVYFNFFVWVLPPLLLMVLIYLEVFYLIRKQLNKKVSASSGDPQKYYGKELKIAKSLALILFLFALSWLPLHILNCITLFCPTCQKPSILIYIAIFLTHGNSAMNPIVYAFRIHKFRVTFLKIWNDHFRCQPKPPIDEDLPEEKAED
Protocol: as §1, §2

T1 sequence (P30543 whole entry): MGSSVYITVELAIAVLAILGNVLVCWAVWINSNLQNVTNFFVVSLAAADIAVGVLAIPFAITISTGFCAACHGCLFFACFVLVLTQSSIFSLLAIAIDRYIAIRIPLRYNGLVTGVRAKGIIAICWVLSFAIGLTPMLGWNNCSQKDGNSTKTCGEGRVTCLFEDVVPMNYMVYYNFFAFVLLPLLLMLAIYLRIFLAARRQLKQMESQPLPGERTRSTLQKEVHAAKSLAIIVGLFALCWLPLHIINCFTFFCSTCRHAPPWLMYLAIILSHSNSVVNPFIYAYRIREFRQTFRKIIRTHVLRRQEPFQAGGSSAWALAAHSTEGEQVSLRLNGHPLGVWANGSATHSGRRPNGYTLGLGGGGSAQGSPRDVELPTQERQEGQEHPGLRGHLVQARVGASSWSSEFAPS

Row | pKi [1] | Ratio A2/A1 [2] | pKi [2] | Structure (SMILES)
1 | 5.94 | 55 | 7.68 | CONc1nc(Cl)nc2c1ncn2[C@@H]1O[C@H](CO)[C@@H](O)[C@H]1O [Example 8, 2-Chloro-N-methoxyadenosine]
2 | 5.78 | 92 | 7.74 | CN(C)Nc1nc(Cl)nc2c1ncn2[C@@H]1O[C@H](CO)[C@@H](O)[C@H]1O [Example 3, 2-Chloro-N-(N,N-dimethylamino)adenosine]
3 | 5.54 | 429 | 8.17 | OC[C@H]1O[C@@H](n2cnc3c(NOC4CCCC4)nc(Cl)nc32)[C@H](O)[C@@H]1O [Example 7, 2-Chloro-N-cyclopentyloxyadenosine]
